The text below walks through data of patent US4973545A, “Photographic couplers with aryloxysilyl groups” (Eastman Kodak Company, priority 1988, dated 1990).

Common to all, as to type: physicochemical
The nature of data set [1]: Dye stability testing: dark keeping, dark/wet fade. As to conditions: dye image from coupler, dark oven, 60° C., 70% relative humidity, fractional density change at absorption maximum. The protocol:
(§1) Each coupler of the invention and each comparison coupler was dissolved in half its weight of tricresylphosphate as the coupler solvent using 2-(2-butoxyethoxy)ethyl acetate as the auxiliary solvent. The coupler was dispersed in a gelatin solution and the auxiliary solvent was removed by evaporation under reduced pressure.
(§2) Experimental photographic coatings were prepared by coating a cellulose acetate film support with a photosensitive layer comprising a dispersion of the coupler as formulated above coated at a laydown of 1.04 mmol m^-2, a silver chlorobromide emulsion at 1.61 gm^-2 Ag, gelatin at 2.42 gm^-2 and a hardener at 0.06 gm^-2. An overcoat containing gelatin at 1.5 gm^-2 was applied to the photosensitive layer.
(§3) The dried experimental coating was then slit and chopped into test strips.
(§4) The test strips were exposed through a neutral density step-wedge test object. The strips were then processed through a standard C41 processing cycle as described in the British Journal of Photographic Annual 1977, pages 204-5. The processed strips were then dried to give stepped dye images.
(§5) Test strips were exposed as above through a step-wedge test object and appropriate filters to give to give an optical density of about 1.0. The strips were processed using the standard conditions described above and samples cut from the dye image step with density closest to 1.0. Visible absorption spectra (normalized to 1.0 density) were obtained using a spectrophotometer.
Dye sample patches having a density of about 1.0 were prepared as for spectrophotometric testing and their absorption spectram measured as above.
[…] The spectrophotometric curves of the samples were then remeasured and the degree of fade quoted as the fractional decrease in density at the absorption maximum relative to the initial density prior to fading. The results are presented as dark/wet fade data.
(§6) In the following Examples, Couplers 1 to 6 are as defined above. Comparison Couplers C-1 to C-6 have the same structures as Couplers 1 to 6, respectively, except that the silyl group is replaced by a hydrogen atom. For example, Coupler C-1 has the structure depicted by Formula I wherein Q=C1 and R=H.

A short description of data set [2]: Spectrophotometric testing: dye hue (λmax and half-bandwidth). As to conditions: dye image, density about 1.0, C41 processing. How it is done: as §1, §2, §3, §4, §5
Dye hues are expressed in terms of the wavelength corresponding to the maximum absorption peak (λmax) and the half-bandwidth (HBW) calculated from the spectrophotometric curves.
as §6

Data set [3] can be described thus: Solubility of the coupler in di-n-butylphthalate coupler solvent (dye dispersibility).
Source text: as §6

`CCCCCCCCCCCCC(Oc1ccc(O[Si](C)(C)C(C)(C)C)c(C(C)(C)C)c1)C(=O)Nc1ccc(Cl)c(NC2=NN(c3c(Cl)cc(Cl)cc3Cl)C(=O)C2)c1` (stereo not drawn) [Coupler 3]: in data set [1], the “Dark/Wet Fade, 1 wk” value is reported as -0.02; the “Dark/Wet Fade, 3 wk” value is recorded as -0.09; the “Dark/Wet Fade” value was -0.04. In data set [2], this molecule showed an HBW (half-bandwidth) of dye absorption of 78.5 nm and a λmax of dye of 539.5.
Take `CCCCCCCCCCC(Oc1ccc(S(=O)(=O)c2ccc(O[Si](C)(C)C(C)(C)C)cc2)cc1)C(=O)Nc1ccc(CCCc2n[nH]c3c(Cl)c(C)nn23)cc1` (stereo not drawn) [Coupler 1]: in data set [1], the “Dark/Wet Fade, 1 wk” value was “+0.02”; the “Dark/Wet Fade, 3 wk” value was determined as 0.00; the “Dark/Wet Fade” value is listed as “+0.01”. In data set [3] (80 mg in 0.05 ml di-n-butylphthalate, 1 min on steam bath at 80° C.), the Solubility entry was “soluble”. Further, in data set [3] (80 mg in 0.1 ml di-n-butylphthalate, 1 min on steam bath at 80° C.), the Solubility entry is recorded as “soluble”. Moreover, the “Solubility relative to Coupler C-1” value in data set [3] (compared with Coupler C-1 under these conditions (di-n-butylphthalate, steam bath 80° C.)) is listed as “greater than ten times more soluble”. In data set [2], this molecule had an HBW (half-bandwidth) of dye absorption of 86.5 nm and a λmax of dye of 548.5.
In data set [2], `CCCCCCCCCCC(Oc1ccc(S(=O)(=O)c2ccc(O)cc2)cc1)C(=O)Nc1ccc(Cl)c(NC2=NN(c3c(Cl)cc(Cl)cc3Cl)C(=O)C2)c1` (stereo not drawn) [Coupler C-4] gave an HBW (half-bandwidth) of dye absorption of 92 nm and a λmax of dye of 545.5.
For the molecule `CCCCCCCCCCC(Oc1ccc(S(=O)(=O)c2ccc(O)cc2)cc1)C(=O)Nc1ccc(CCCc2n[nH]c3c(Cl)c(C)nn23)cc1` (stereo not drawn) [Coupler C-1], in data set [1], the “Dark/Wet Fade, 1 wk” value was “+0.07”; the “Dark/Wet Fade, 3 wk” value is “+0.06”; the “Dark/Wet Fade” value was “+0.05”. The Solubility entry in data set [3] (20 mg in 1 ml di-n-butylphthalate, 2 min on steam bath at 80° C.) was “soluble”. The Solubility entry in data set [3] (40 mg in 1 ml di-n-butylphthalate, 6 min on steam bath at 80° C.) was “soluble”. For the same molecule, the Solubility entry in data set [3] (100 mg in 1 ml di-n-butylphthalate, 6 min on steam bath at 80° C.) is “insoluble”. For the same molecule, in data set [2], the HBW (half-bandwidth) of dye absorption turned out to be 89.5 nm and the λmax of dye was determined as 553.
As for `CCCCCCCCCCC(Oc1ccc(S(=O)(=O)c2ccc(O[Si](C)(C)C(C)(C)C)cc2)cc1)C(=O)Nc1ccc(Cl)c(NC2=NN(c3c(Cl)cc(Cl)cc3Cl)C(=O)C2)c1` (stereo not drawn) [Coupler 4], in data set [2], the HBW (half-bandwidth) of dye absorption was determined as 84.5 nm and the λmax of dye is reported as 541.5.
In the case of `CCCCCCCCCCCCC(Oc1ccc(O)c(C(C)(C)C)c1)C(=O)Nc1ccc(Cl)c(NC2=NN(c3c(Cl)cc(Cl)cc3Cl)C(=O)C2)c1` (stereo not drawn) [Coupler C-3], in data set [1], the “Dark/Wet Fade, 1 wk” value is reported as -0.04; the “Dark/Wet Fade, 3 wk” value was -0.09; the “Dark/Wet Fade” value is given as -0.08. In data set [2], this molecule had an HBW (half-bandwidth) of dye absorption of 82 nm and a λmax of dye of 544.5.
